How the values were obtained:
FKBP5 = FKBP5 transcription in peritoneal resident macrophages (PRM) and spleen cells after in vivo treatment; design: species or system hVISTA mice; conditions: linker payloads as anti-VISTA conjugates
[1] = system: peritoneal resident macrophages (PRM); experiment: In vivo treatment/ex vivo PRM activation, TNFα and IL-6 in supernatant; design: species or system hVISTA mice
[2] = system: LPS stimulated human PBMCs; experiment: LPS stimulated human PBMC, IL-1β and IL-6 ELISA; assay type: cell-based
Method in brief: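 Human PBMC (1-2 healthy donors), 150,000 cells/well, treated with test agents at 1,000 nM down to 1 nM or 0.2 nM, in duplicate. LPS at 1 ng/ml added immediately after free payload or 4 h after conjugates; IL-1β and IL-6 in supernatants measured by ELISA.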

human PBMC = experiment: Identification and quantification of released payload in human PBMC (MS); assay type: in vitro ADME; conditions: 4h, second study
Method: In all the following experiments, human PBMC, isolated from 1 healthy donor per study, were treated with exemplary anti-VISTA glucocorticoid conjugates according to the invention to allow identification and quantification of the released payload.
In the present experiments, after incubating PBMC with glucocorticoid (GC) antibody drug conjugates (ADC) for 4h, cells were harvested and assessed for both FKBP5 transcription induction via quantitative real time PCR (qPCR) as well as assessed via mass spectrometry (MS) for released payload identification and quantification.
Isolated PBMCs were resuspended in RPMI 1640 containing 10% human AB serum, 10 mM Hepes, 1× Penicillin/Streptomycin/L-Glutamine (assay media).
PBMCs from 1 donor were washed 2× in PBS, and then resuspended at 1×10^7/mL in media. […]
Remaining cells for each treatment were dived into aliquots representing 50 million cells per aliquot (for metabolite quantification only one aliquot per condition was generated). […]
Media was removed from each cell pellet with the media then set aside at −80C until it could be assessed for the concentration of effluxed payload. […]
Briefly, pre-chilled 70% ACN (extraction buffer) was added to the PBMC pellets for extraction. […] was injected onto the LCMS (Luna C18 (2) column, Thermo Scientific Q Exactive Hybrid Quadrupole Orbitrap) and resulting masses assessed. […]

[3] = linker/payloads as anti-VISTA conjugates

SMILES: C[C@]12C=CC(=O)C=C1CC[C@@H]1[C@@H]2[C@@H](O)C[C@@]2(C)[C@H]1C[C@H]1O[C@@H](c3ccc(CC4CC5(C4)CC(NC(=O)[C@H](CCC(=O)O)NC(=O)CNC(=O)CBr)C5)cc3)O[C@]12C(=O)CO (stereo partly drawn) [INX V, (S)-4-(2-(2-bromoacetamido)acetamido)-5-((6-(4-((6aR,6bS,7S,8aS,8bS,10R,11aR,12aS,12bS)-7-hydroxy-8b-(2-hydroxyacetyl)-6a,8a-dimethyl-4-oxo-2,4,6a,6b,7,8,8a,8b,11a,12,12a,12b-dodecahydro-1H-naphtho[2′,1′:4,5]indeno[1,2-d][1,3]dioxol-10-yl)benzyl)spiro[3.3]heptan-2-yl)amino)-5-oxopentanoic acid]
- FKBP5 induction when dosed 14 days early (conclusions) (FKBP5): still display significant potency when dosed 14 days early in regard to FKBP5 induction
- preventing ex vivo induction of TNFα and IL-6 in PRM ([1]; Experiment 9: linker payloads as conjugates, 7 days post 0.2 mg/Kg of GC payload, supernatant 24h): remarkable long-term potency in controlling cytokine responses
- controlling cytokine response in PRM when dosed 14 days early (conclusions) [1, 3]: significant potency in controlling cytokine response in PRM when dosed 14 days early
- potency in PRM cytokine model when dosed 7 days early (conclusions) [1, 3]: remarkably more potent than payloads INX P and INX R when dosed 7 days early
- potency of conjugated linker payloads over INX J (conclusions) [2]: enhanced potency
- released payload relative to INX P / INX231P (ng/ng) (human PBMC): 235 x
